Measurements as given in patent US12686690B2, “Macrocyclic urea orexin receptor agonists” (Merck Sharp & Dohme LLC, priority 2020, dated 2026).

Target: T1, hOX2R (Homo sapiens, UniProt O43614)
T1 construct: expressed in transfected cells; host or cells: CHO cells (G418 selection)
T1 sequence (O43614 1-444): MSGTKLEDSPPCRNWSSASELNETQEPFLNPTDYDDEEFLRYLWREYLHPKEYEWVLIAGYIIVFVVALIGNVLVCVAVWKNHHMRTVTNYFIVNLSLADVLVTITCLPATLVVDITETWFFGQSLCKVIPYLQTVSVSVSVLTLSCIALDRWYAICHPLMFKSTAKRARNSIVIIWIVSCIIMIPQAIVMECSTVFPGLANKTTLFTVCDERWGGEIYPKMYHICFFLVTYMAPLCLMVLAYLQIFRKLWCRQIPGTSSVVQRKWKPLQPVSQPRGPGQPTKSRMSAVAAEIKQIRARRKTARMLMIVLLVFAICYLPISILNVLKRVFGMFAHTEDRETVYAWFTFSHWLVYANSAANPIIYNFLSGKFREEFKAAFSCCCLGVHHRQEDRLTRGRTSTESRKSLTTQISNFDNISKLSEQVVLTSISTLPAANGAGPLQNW
Test: hOX2R IPone assay (orexin receptor agonism)
Format: cell-based
Conditions: IPone readout; for hOX2R_Ipone max %act: maximal activation; for EC50: orexin receptor agonist, read-out: hOX2R_IPone EC50

Structure (SMILES) | hOX2R_Ipone max %act [%] | EC50 [nM]
CCN1C(=O)NC(CCC(F)(F)F)CCOCCOc2cn3ncnc3c(n2)-c2ccnc(c2)C1C [Example 136, (3R,7S,E)-4-ethyl-3-methyl-7-(3,3,3-trifluoropropyl)-10,13-dioxa-4,6-diaza-1(6,8)-[1,2,4]triazolo[1,5-a]pyrazina-2(4,2)-pyridinacyclotridecaphan-5-one] | 101.7 | 0.724
CCN1C(=O)N[C@@H](CCC(F)(F)F)CCCCCc2cc(cn3ccnc23)-c2nc(ccc2OC)[C@H]1C [Example 138, (3R,7R,Z)-4-ethyl-23-methoxy-3-methyl-7-(3,3,3-trifluoropropyl)-4,6-diaza-1(6,8)-imidazo[1,2-a]pyridina-2(2,6)-pyridinacyclododecaphan-5-one] | 100.1 | 8.48
CCN1C(=O)N[C@@H](CCC(F)(F)F)CCCCCOc2nc(cn3ccnc23)-c2nc(cnc2OC)[C@H]1C [Example 139, (3R,7R,E)-4-ethyl-23-methoxy-3-methyl-7-(3,3,3-trifluoropropyl)-13-oxa-4,6-diaza-1(6,8)-imidazo[1,2-a]pyrazina-2(2,6)-pyrazinacyclotridecaphan-5-one] | 97.88 | 1.08
CCN1C(=O)N[C@@H](CCC(F)(F)F)CCCCCOc2cc(cc3ccnn23)-c2cc(nnc2OC)[C@H]1C [Example 140, (3R,7R,E)-4-ethyl-26-methoxy-3-methyl-7-(3,3,3-trifluoropropyl)-13-oxa-4,6-diaza-1(5,7)-pyrazolo[1,5-a]pyridina-2(5,3)-pyridazinacyclotridecaphan-5-one] | 101.9 | 1.4
CCN1C(=O)N[C@@H](C)C(F)(F)CCCCOc2nc(cn3ccnc23)-c2cc(ncc2OC)[C@H]1C [Example 141, (3R,7S,E)-4-ethyl-8,8-difluoro-25-methoxy-3,7-dimethyl-13-oxa-4,6-diaza-1(6,8)-imidazo[1,2-a]pyrazina-2(4,2)-pyridinacyclotridecaphan-5-one] | 99.01 | 8.35
CCN1C(=O)N[C@@H](CCC(F)(F)F)CCCCCOc2nc(cn3ncnc23)-c2ccnc(c2)[C@H]1C [Example 142, (3R,7R,E)-4-ethyl-3-methyl-7-(3,3,3-trifluoropropyl)-13-oxa-4,6-diaza-1(6,8)-[1,2,4]triazolo[1,5-a]pyrazina-2(4,2)-pyridinacyclotridecaphan-5-one] | 100.3 | 4.71
CCN1C(=O)N[C@@H](CCC(F)(F)F)CCCCCOc2nc(cn3ccnc23)-c2ccnc(c2)C1(C)C [Example 143, (R,E)-4-ethyl-3,3-dimethyl-7-(3,3,3-trifluoropropyl)-13-oxa-4,6-diaza-1(6,8)-imidazo[1,2-a]pyrazina-2(4,2)-pyridinacyclotridecaphan-5-one] | 89.95 | 271
CCN1C(=O)N[C@@H](CCC(F)(F)F)CCCCOCc2nc(cn3ccnc23)-c2cc(ncc2OC)[C@H]1C [Example 144, (3R,7R,E)-4-ethyl-25-methoxy-3-methyl-7-(3,3,3-trifluoropropyl)-12-oxa-4,6-diaza-1(6,8)-imidazo[1,2-a]pyrazina-2(4,2)-pyridinacyclotridecaphan-5-one] | 101.4 | 6.09
CCN1C(=O)NC2CC2CCCCOc2cn3ccnc3c(n2)-c2cc(ncc2OC)C1C [Example 145, (3R,E)-4-ethyl-25-methoxy-3-methyl-12-oxa-4,6-diaza-1(6,8)-imidazo[1,2-a]pyrazina-2(4,2)-pyridina-7(1,2)-cyclopropanacyclododecaphan-5-one] | 103.8 | 4.4
CCN1C(=O)N[C@@H](CCC(C)(F)F)CCCCCOc2nc(cn3ncnc23)-c2cc(cnc2C)[C@H]1C [Example 146, (3R,7R,E)-7-(3,3-difluorobutyl)-4-ethyl-22,3-dimethyl-13-oxa-4,6-diaza-1(6,8)-[1,2,4]triazolo[1,5-a]pyrazina-2(3,5)-pyridinacyclotridecaphan-5-one] | 100.8 | 14.7
CCN1C(=O)N[C@@H](CCC(F)(F)F)CCCCCOc2nc(cn3ncnc23)-c2nc(ncc2OC)[C@H]1C [Example 147, (3R,7R,E)-4-ethyl-25-methoxy-3-methyl-7-(3,3,3-trifluoropropyl)-13-oxa-4,6-diaza-1(6,8)-[1,2,4]triazolo[1,5-a]pyrazina-2(4,2)-pyrimidinacyclotridecaphan-5-one] | 102.4 | 3.69
CCN1C(=O)N[C@@H](CCC(C)(F)F)CCOCCOc2nc(cn3ncnc23)-c2cc(cnc2OC)[C@H]1C [Example 148, (3R,7S,E)-7-(3,3-difluorobutyl)-4-ethyl-22-methoxy-3-methyl-10,13-dioxa-4,6-diaza-1(6,8)-[1,2,4]triazolo[1,5-a]pyrazina-2(3,5)-pyridinacyclotridecaphan-5-one] | 101.7 | 1.7
CCN1C(=O)N[C@@H](CCC(F)(F)F)CCCCCOc2cc(nn3ccnc23)-c2cc(ncc2OC)[C@H]1C [Example 149, (3R,7R,E)-4-ethyl-25-methoxy-3-methyl-7-(3,3,3-trifluoropropyl)-13-oxa-4,6-diaza-1(6,8)-imidazo[1,2-b]pyridazina-2(4,2)-pyridinacyclotridecaphan-5-one] | 109.6 | 1.11
CCN1C(=O)N[C@@H](CCC(F)(F)F)CCOCCOc2cc(cn3ncnc23)-c2cc(ncc2OC)[C@H]1C [Example 150, (3R,7S,E)-4-ethyl-25-methoxy-3-methyl-7-(3,3,3-trifluoropropyl)-10,13-dioxa-4,6-diaza-1(6,8)-[1,2,4]triazolo[1,5-a]pyridina-2(4,2)-pyridinacyclotridecaphan-5-one] | 103 | 2.43
CCN1C(=O)NC(CC(C)(F)F)CCCCCOc2cn3ccnc3c(n2)-c2cc(ncc2OC)C1C [Example 151, (3R,7R,E)-7-(2,2-difluoropropyl)-4-ethyl-25-methoxy-3-methyl-13-oxa-4,6-diaza-1(6,8)-imidazo[1,2-a]pyrazina-2(4,2)-pyridinacyclotridecaphan-5-one] | 108.6 | 0.51
CCN1C(=O)N[C@@H](c2nccnc2C)CCCCCOc2nc(cn3ccnc23)-c2cc(ncc2OC)[C@H]1C [Example 152, (3R,7R,E)-4-ethyl-25-methoxy-3-methyl-7-(3-methylpyrazin-2-yl)-13-oxa-4,6-diaza-1(6,8)-imidazo[1,2-a]pyrazina-2(4,2)-pyridinacyclotridecaphan-5-one] | 106.5 | 4.17
CCN1C(=O)N[C@@H](CCC(C)(F)F)COCCCOc2nc(cn3ncnc23)-c2cc(ncc2C)[C@H]1C [Example 153, (3R,7S,E)-7-(3,3-difluorobutyl)-4-ethyl-25,3-dimethyl-9,13-dioxa-4,6-diaza-1(6,8)-[1,2,4]triazolo[1,5-a]pyrazina-2(4,2)-pyridinacyclotridecaphan-5-one] | 107.8 | 2.2
CCN1C(=O)N[C@@H](CCS(C)(=O)=O)CCCCCOc2nc(cn3ncnc23)-c2cc(ncc2OC)[C@H]1C [Example 154, (3R,7R,E)-4-ethyl-25-methoxy-3-methyl-7-(2-(methylsulfonyl)ethyl)-13-oxa-4,6-diaza-1(6,8)-[1,2,4]triazolo[1,5-a]pyrazina-2(4,2)-pyridinacyclotridecaphan-5-one] | 106.1 | 1.05
